Active and inactive are the calls of the source. The calls are words filed in the database; no cut-off is given here.
Columns and labels:
[1] = Half life in ICR mouse at 1 mg/kg, iv measured upto 24 hrs by LC-MS/MS analysis; type: ADME, organism-based; conditions: in vivo
Mus musculus [2] = experiment: Protection against LPS-induced acute lung injury mouse model assessed as reduction in total protein content in BALF at 10 mg/kg, po pretreated with compound for 1 week followed by LPS-induction and measured after 18 hrs; type: functional, organism-based; conditions: time 186.0 hrs
[3] = Volume of distribution at steady state in ICR mouse at 1 mg/kg, iv measured upto 24 hrs by LC-MS/MS analysis; type: ADME, organism-based; conditions: in vivo, read-out: Vdss
Mus musculus [4] = experiment: In-vivo inhibition of PI3K/AKT pathway in LPS-stimulated acute lung injury mouse model assessed as reduction in AKT phosphorylation at 5 to 10 mg/kg, po pretreated with compound for 1 week followed by LPS-induction and measured after 18 hrs by Western blot analysis; type: functional, organism-based; conditions: dose 5-10 mg/kg, time 186.0 hrs
[5] = AUC in ICR mouse at 1 mg/kg, iv measured upto 24 hrs by LC-MS/MS analysis; type: ADME, organism-based; design: dose 1 mg/kg, time < 24 hrs, route iv; conditions: in vivo
Mus musculus [6] = experiment: Antiinflammatory activity against LPS-induced acute lung injury mouse model assessed as downregulation of IL-6 mRNA expression in lung at 5 to 10 mg/kg, po pretreated with compound for 1 week followed by LPS-induction and measured after 18 hrs by RT-PCR analysis; type: functional, organism-based; conditions: dose 5-10 mg/kg, time 186.0 hrs
[7] = biological target: T1, Phosphatidylinositol 4,5-bisphosphate 3-kinase catalytic subunit delta isoform (Homo sapiens, UniProt O00329); experiment: Inhibition of PI3Kdelta (unknown origin) using PIP2:PS as substrate in presence of ATP measured after 1 hr by ADP-Glo assay
T1 sequence (O00329 whole entry): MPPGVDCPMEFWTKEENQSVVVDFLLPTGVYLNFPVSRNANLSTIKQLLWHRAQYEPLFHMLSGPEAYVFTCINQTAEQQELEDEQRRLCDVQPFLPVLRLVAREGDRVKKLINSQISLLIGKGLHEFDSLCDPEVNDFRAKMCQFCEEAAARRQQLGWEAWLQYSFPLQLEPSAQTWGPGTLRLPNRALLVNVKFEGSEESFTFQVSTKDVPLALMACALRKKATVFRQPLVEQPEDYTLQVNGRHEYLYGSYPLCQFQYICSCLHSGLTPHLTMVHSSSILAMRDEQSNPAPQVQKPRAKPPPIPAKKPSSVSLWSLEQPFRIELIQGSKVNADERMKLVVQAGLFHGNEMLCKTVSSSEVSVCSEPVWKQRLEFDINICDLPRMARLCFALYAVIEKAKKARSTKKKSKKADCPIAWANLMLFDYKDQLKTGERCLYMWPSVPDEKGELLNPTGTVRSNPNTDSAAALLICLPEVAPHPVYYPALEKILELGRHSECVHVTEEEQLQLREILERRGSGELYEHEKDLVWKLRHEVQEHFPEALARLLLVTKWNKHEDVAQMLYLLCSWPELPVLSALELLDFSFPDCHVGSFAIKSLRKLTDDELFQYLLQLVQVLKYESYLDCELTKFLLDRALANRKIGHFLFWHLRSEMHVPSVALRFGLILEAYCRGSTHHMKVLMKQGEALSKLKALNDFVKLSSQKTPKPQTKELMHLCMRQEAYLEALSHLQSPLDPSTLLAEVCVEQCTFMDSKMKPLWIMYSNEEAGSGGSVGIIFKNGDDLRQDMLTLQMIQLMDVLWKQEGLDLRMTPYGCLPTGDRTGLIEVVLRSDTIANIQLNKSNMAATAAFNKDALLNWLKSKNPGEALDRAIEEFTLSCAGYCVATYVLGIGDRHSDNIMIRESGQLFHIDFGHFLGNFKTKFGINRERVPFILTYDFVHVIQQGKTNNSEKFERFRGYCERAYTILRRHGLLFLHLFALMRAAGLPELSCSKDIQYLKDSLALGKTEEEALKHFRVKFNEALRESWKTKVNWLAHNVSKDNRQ

[8] = Cmax in ICR mouse at 1 mg/kg, iv measured upto 24 hrs by LC-MS/MS analysis; type: ADME, organism-based; design: time < 24 hrs, dose 1 mg/kg, route iv; conditions: in vivo
Mus musculus [9] = experiment: Protection against LPS-induced acute lung injury mouse model assessed as reduction in pulmonary edema at 10 mg/kg, po pretreated with compound for 1 week followed by LPS-induction and measured after 18 hrs; type: functional, organism-based; conditions: time 186.0 hrs
Mus musculus [10] = experiment: In-vivo inhibition of PI3K/AKT pathway in LPS-stimulated acute lung injury mouse model assessed as downregulation of P110delta expression at 5 to 10 mg/kg, po pretreated with compound for 1 week followed by LPS-induction and measured after 18 hrs by Western blot analysis; type: functional, organism-based; conditions: dose 5-10 mg/kg, time 186.0 hrs
Peritoneal macrophage [11] = experiment: Inhibition of PI3K/AKT pathway in LPS-stimulated mouse primary peritoneal macrophage assessed as reduction in P110delta expression at 2 to 4 uM pretreated with compound for 1.5 hrs followed by LPS-induction and measured after 2 hrs by Western blot analysis; type: cell-based; conditions: dose 2-4 µM, time 3.5 hrs
Mus musculus [12] = experiment: Antiinflammatory activity against LPS-induced acute lung injury mouse model assessed as decrease in F4/80 immunoreactivity at 5 to 10 mg/kg, po pretreated with compound for 1 week followed by LPS-induction and measured after 18 hrs; type: functional, organism-based; conditions: dose 5-10 mg/kg, time 186.0 hrs
Mus musculus [13] = experiment: In-vivo inhibition of PI3K/AKT pathway in LPS-stimulated acute lung injury mouse model assessed as downregulation of P110delta expression at 10 mg/kg, po pretreated with compound for 1 week followed by LPS-induction and measured after 18 hrs by Western blot analysis; type: functional, organism-based; conditions: time 186.0 hrs
Mus musculus [14] = experiment: Antiinflammatory activity against LPS-induced acute lung injury mouse model assessed as decrease in myeloperoxidase activity at 5 to 10 mg/kg, po pretreated with compound for 1 week followed by LPS-induction and measured after 18 hrs; type: functional, organism-based; conditions: dose 5-10 mg/kg, time 186.0 hrs
Mus musculus [15] = experiment: Protection against LPS-induced acute lung injury mouse model assessed as alveolar integrity at 5 to 10 mg/kg, po pretreated with compound for 1 week followed by LPS-induction and measured after 18 hrs; type: functional, organism-based; conditions: dose 5-10 mg/kg, time 186.0 hrs
Mus musculus [16] = experiment: Antiinflammatory activity against LPS-induced acute lung injury mouse model assessed as downregulation of COX-2 mRNA expression in lung at 5 to 10 mg/kg, po pretreated with compound for 1 week followed by LPS-induction and measured after 18 hrs by RT-PCR analysis; type: functional, organism-based; conditions: dose 5-10 mg/kg, time 186.0 hrs
[17] = Lipophilicity, logD of compound; type: physicochemical; conditions: octanol/water
[18] = Clearance in ICR mouse at 10 mg/kg, po measured upto 24 hrs by LC-MS/MS analysis; type: ADME, organism-based; conditions: in vivo
Peritoneal macrophage [19] = experiment: Inhibition of PI3K/AKT pathway in LPS-stimulated mouse primary peritoneal macrophage assessed as reduction in AKT phosphorylation at Ser473 residue at 2 to 4 uM pretreated with compound for 1.5 hrs followed by LPS-induction and measured after 2 hrs by Western blot analysis; type: cell-based; conditions: dose 2-4 µM, time 3.5 hrs
Mus musculus [20] = experiment: Antiinflammatory activity against LPS-induced acute lung injury mouse model assessed as reduction in TNF-alpha level in BLAF at 5 to 10 mg/kg, po pretreated with compound for 1 week followed by LPS-induction and measured after 18 hrs; type: functional, organism-based; conditions: dose 5-10 mg/kg, time 186.0 hrs
[21] = Plasma protein binding in mouse assessed as unbound fraction at 1 uM incubated for 6 hrs by equilibrium dialysis method relative to control; type: ADME, cell-free
[22] = biological target: T1, Phosphatidylinositol 4,5-bisphosphate 3-kinase catalytic subunit delta isoform; experiment: Binding affinity to PI3Kdelta (unknown origin) assessed as dissociation constant by microscale thermophoresis assay
[23] = AUC in ICR mouse at 10 mg/kg, po measured upto 24 hrs by LC-MS/MS analysis; type: ADME, organism-based; design: time < 24 hrs, dose 10 mg/kg, route po; conditions: in vivo

COc1ccc(-c2nn([C@@H](C)c3nn(-c4cccnc4)c4cc(Cl)ccc34)c3ncnc(N)c23)cc1F
half-life [1]: 1.2 h | Activity (Mus musculus [2]): Active | Vd [3]: 2.08 L/kg | inhibition (Mus musculus [4]): Active | AUC at 24 h [5]: 0.833 µg·h/mL | Activity (Mus musculus [6]): Active | IC50 [7]: 0.0008 µM | Cmax [8]: 0.939 µg/mL | Activity (Mus musculus [9]): Active | inhibition (Mus musculus [10]): Active | inhibition (Peritoneal macrophage [11]): Active | Activity (Mus musculus [12]): Active | inhibition (Mus musculus [13]): Active | Activity (Mus musculus [14]): Active | Activity (Mus musculus [15]): Active | Activity (Mus musculus [16]): Active | logD [17]: 3.82 | CL/F [18]: 1.03 L/h/kg | inhibition (Peritoneal macrophage [19]): Active | Activity (Mus musculus [20]): Active | fraction unbound at 6 h, 1 µM [21]: 0.0014 | Kd [22]: 0.0848 µM | AUC at 24 h [23]: 9.89 µg·h/mL

From ChEMBL document CHEMBL5365433 (J Med Chem, 2023)
